# Test results from patent US8420122B2, “Process for the precipitation and isolation of 6,6-dimethyl-3-aza-bicyclo [3.1.0] hexane-amide compounds by controlled precipitation and pharmaceutical formulations containing same” (Merck Sharp & Dohme Corp., priority 2006, dated 2013).
# Where two headings read alike, the source gives them in different places.
# Tests used:
# [1] = Aggregated / median particle size and size distribution; type: physicochemical; conditions: for Aggregated particle size: additional runs A, B, C (mixing Tee)
# Protocol: As used herein “median precipitated particle size” “median aggregate particle size” and “particulate size distribution” are determined by Laser Diffraction […] measurements.
# [2] = BET surface area (bulk surface area); type: physicochemical; conditions: for bulk surface area after distillation step: final granulate product
# [3] = Softening point of precipitate (FBRM during controlled heating); type: physicochemical
# Protocol: (§1) For the Examples which follow, particle size information was acquired by measuring the particulate material produced in the slurry using Focused Beam Reflectance Measurements (FBRM) performed with a Lasentec probe from Mettler Toledo in accordance with manufacturers directions for obtaining such measurements. Measurements were carried out on a sample of the slurry as obtained from the holding tank prior to vacuum distillation. The procedure and equipment can measure particulate materials over a size range of from 1 micron up to 1000 microns. Primary particle size was characterized qualitatively by Scanning Electron Microscopy (SEM). Changes in particle aggregation and aggregate morphology were observed by SEM under various conditions to determine softening point of the precipitated material. For SEM determination of softening point, a sample of the slurry was obtained periodically at each temperature interval as the slurry was heated. The solids in the sample were collected by filtration, dried under vacuum for 1 to 2 hours and the dried sample was examined using conventional SEM. […] The softening point was inferred from the sampling temperature at which the precipitate began to show loss of nodular particle appearance when examined by SEM in this manner.
# Verified by SEM observations, it was shown also that softening point could be determined from FBRM measurements (taken in accordance with manufactures instructions) made on a sample of the slurry undergoing controlled heating. […] FBRM measurements were obtained continuously during the heating cycle and the softening point was determined to be the temperature corresponding to the maxima in the particle count curve over the heating regime.
# A precipitate slurry of the compound of Formula B was prepared by setting the flow control valves to supply 3400 ml/min. of n-heptane and 840 ml/min of the MTBE/compound of Formula B solution. […] An aliquot of the slurry thus produced was also evaluated to determine the softening point of the precipitate therein. […] In this manner the softening temperature was determined to be at 36.2 C.
# [4] = Chord length by Focused Beam Reflectance Measurements (FBRM); type: physicochemical; conditions: Example I first run, slurry, 0.41 M MTBE solution, 20° C.
# Protocol: as §1
# [5] = Primary particle size and morphology by Scanning Electron Microscopy (SEM); type: physicochemical
# Protocol: As used herein “primary particle” is the initially formed particles nucleated by combining a solution and anti-solvent. “Primary particle size” refers to the size of a primary particle and is determined by Scanning Electron Microscopy (SEM).
# For the Examples which follow, particle size information was acquired by measuring the particulate material produced in the slurry using Focused Beam Reflectance Measurements (FBRM) performed with a Lasentec probe from Mettler Toledo in accordance with manufacturers directions for obtaining such measurements. Measurements were carried out on a sample of the slurry as obtained from the holding tank prior to vacuum distillation. The procedure and equipment can measure particulate materials over a size range of from 1 micron up to 1000 microns. Primary particle size was characterized qualitatively by Scanning Electron Microscopy (SEM). Changes in particle aggregation and aggregate morphology were observed by SEM under various conditions to determine softening point of the precipitated material. For SEM determination of softening point, a sample of the slurry was obtained periodically at each temperature interval as the slurry was heated. The solids in the sample were collected by filtration, dried under vacuum for 1 to 2 hours and the dried sample was examined using conventional SEM. […]
# [6] = Bulk density / tapped density; type: physicochemical
# Protocol: The particulate prepared above was recovered by pressure filtration and vacuum dried under house vacuum (approximately 60 to 70 torr) for 2 hours at 25 C followed by 8 hours of house vacuum at 35 C. The product was finish-dried at 45 C under house vacuum for an additional 16 hours. The dried particulate was evaluated and found to have a primary particle size ranging from less than 1 micron up to about 2 microns. The specific surface area (BET absorption method) was determined to be about 19.11 m2/g. The bulk density of isolated material was determined by weighing a 25 ml (unpacked) sample.
# [7] = Comparative PK Results-2: Day 5 multiple-dose pharmacokinetics; type: in vivo, human; conditions: for Tmax: read-out: Tmax, median; for half-life: read-out: t1/2, mean (converted)
# Protocol: Pharmacokinetic samples for the determination of plasma concentrations of the compound of Formula B were collected on Day 5 of each period. PK samples were collected predose (0 hour), 1, 2, 3, 4, 6, 8, 12, and 24-hours postdose.
# [8] = tested on: QT/QTc intervals; test: QT/QTc study, mean QTcF change from time-matched baseline; conditions: for QT interval (mean QTcF change from time-matched baseline): Day 5, relative to placebo
# Protocol: A study was conducted to evaluate the effect of both a therapeutic (800 mg TID) and a supratherapeutic (1200 mg TID) dose of the compound of Formula B at steay-state on QT/QTc intervals, as measured by mean maximum change from time-matched baseline ECG recordings compared to placebo.
# Thirty-six subjects who met entry criteria received one of four study treatments for Days 1 to 5 of each treatment period. This study was conducted in a 4-way crossover manner so that subjects were randomized to receive the 4 study treatments in one of four sequences. Prior to treatment crossover, subjects completed an approximately 1-week outpatient washout period.
# [9] = additional runs A, B, C, precipitate before distillation
# [10] = Example I second run, isolated material
# [11] = Comparative Example I, stirred batch reactor
# [12] = Example I first run, dried particulate
# [13] = 800 mg TID, Day 5, healthy subjects, n = 31
# [14] = human, plasma, oral, 800 mg TID, Day 5, healthy subjects, n = 31
# [15] = human, plasma, oral, 1200 mg TID, Day 5, healthy subjects, n = 35
smiles,measurement,setting,value
CC(C)(C)NC(=O)NC(C(=O)N1CC2C([C@H]1C(=O)NC(CC1CCC1)C(=O)C(N)=O)C2(C)C)C(C)(C)C (stereo partly shown) [Example A1],Aggregated particle size,[1],10-20 microns
same,BET Surface area,[2]; [9],30.19 m^2/g
CC(C)(C)NC(=O)NC(C(=O)N1CC2C([C@H]1C(=O)NC(CC1CCC1)C(=O)C(N)=O)C2(C)C)C(C)(C)C (stereo partly shown) [Example A2],Aggregated particle size,[1],10-20 microns
same,BET Surface area,[2]; [9],16.44 m^2/g
CC(C)(C)NC(=O)NC(C(=O)N1CC2C([C@H]1C(=O)NC(CC1CCC1)C(=O)C(N)=O)C2(C)C)C(C)(C)C (stereo partly shown) [Example A3],Aggregated particle size,[1],20-30 microns
same,BET Surface area,[2]; [9],17.41 m^2/g
CC(C)(C)NC(=O)NC(C(=O)N1CC2C([C@H]1C(=O)NC(CC1CCC1)C(=O)C(N)=O)C2(C)C)C(C)(C)C (stereo partly shown) [Example B1],Aggregated particle size,[1],10-20 microns
same,BET Surface area,[2]; [9],32.75 m^2/g
CC(C)(C)NC(=O)NC(C(=O)N1CC2C([C@H]1C(=O)NC(CC1CCC1)C(=O)C(N)=O)C2(C)C)C(C)(C)C (stereo partly shown) [Example B2],Aggregated particle size,[1],10-20 microns
same,BET Surface area,[2]; [9],25.68 m^2/g
CC(C)(C)NC(=O)NC(C(=O)N1CC2C([C@H]1C(=O)NC(CC1CCC1)C(=O)C(N)=O)C2(C)C)C(C)(C)C (stereo partly shown) [Example B3],Aggregated particle size,[1],10-20 microns
same,BET Surface area,[2]; [9],32.00 m^2/g
CC(C)(C)NC(=O)NC(C(=O)N1CC2C([C@H]1C(=O)NC(CC1CCC1)C(=O)C(N)=O)C2(C)C)C(C)(C)C (stereo partly shown) [Example B4],BET Surface area,[2]; [9],24.24 m^2/g
CC(C)(C)NC(=O)NC(C(=O)N1CC2C([C@H]1C(=O)NC(CC1CCC1)C(=O)C(N)=O)C2(C)C)C(C)(C)C (stereo partly shown) [Example C1],Aggregated particle size,[1],0.25-25.5 microns
same,BET Surface area,[2]; [9],24.85 m^2/g
same,bulk surface area after distillation step,[2],6.13 m^2/g
CC(C)(C)NC(=O)NC(C(=O)N1CC2C([C@H]1C(=O)NC(CC1CCC1)C(=O)C(N)=O)C2(C)C)C(C)(C)C (stereo partly shown) [Example C2],Aggregated particle size,[1],0.25-18 microns
same,BET Surface area,[2]; [9],32.41 m^2/g
same,bulk surface area after distillation step,[2],6.31 m^2/g
CC(C)(C)NC(=O)NC(C(=O)N1CC2C([C@H]1C(=O)NC(CC1CCC1)C(=O)C(N)=O)C2(C)C)C(C)(C)C (stereo partly shown) [Example C3],Aggregated particle size,[1],10-20 microns
CC(C)(C)NC(=O)NC(C(=O)N1CC2C([C@H]1C(=O)NC(CC1CCC1)C(=O)C(N)=O)C2(C)C)C(C)(C)C (stereo partly shown) [Example C4],Aggregated particle size,[1],10-20 microns
"CC(C)(C)NC(=O)NC(C(=O)N1CC2C([C@H]1C(=O)NC(CC1CCC1)C(=O)C(N)=O)C2(C)C)C(C)(C)C (stereo partly shown) [compound of Formula B, 3-[2-(3-tert-Butyl-ureido)-3,3-dimethyl-butyryl]-6,6-dimethyl-3-aza-bicyclo[3.1.0]hexane-2-carboxylic acid (2-carbamoyl-1-cyclobutylmethyl-2-oxo-ethyl)-amide]",agglomerated average particle size,[1]; [10],11 microns
same,median particulate size,[1]; Example II precipitate,1.57 microns
same,median particulate size,[1]; Example III precipitate,1.46 microns
same,softening point of the wet cake,[3]; [11],below 30 °C
same,softening temperature,"[3]; Example I first run, slurry aliquot heated 1 C/min",36.2 C
same,softening point,"[3]; Example I second run, slurry distilled to about 35% of original volume",51.6 °C
same,average chord length of agglomerated particulate,[4],15.8 microns
same,primary particle size,[5]; [12],less than 1 micron up to about 2 microns
same,primary particle size,"[5]; Example I second run, after distillation, isolated material",less than 1 micron
same,bulk density,[6]; [11],0.16 g/mL
same,bulk density,"[6]; Example I first run, isolated material",0.3 g/mL
same,bulk density average,"[6]; Example I second run, isolated particulate",0.191 g/cm³
same,bulk density,[6]; Example II precipitate,0.23 g/mL
same,bulk density,[6]; Example III precipitate,0.18 g/mL
same,BET Surface area,[2]; [11],1.76 m^2/g
same,specific surface area (BET absorption method),[2]; [12],about 19.11 m2/g
same,average bulk surface area (BET),[2]; [10],about 10.3 m^2/g
same,bulk surface area,[2]; Example II precipitate,8.14 m^2/g
same,bulk surface area,[2]; Example III precipitate,7.2 m^2/g
same,"CL/F, mean",[7]; [13],158 L/h
same,"Cmin, mean",[7]; [13],0.0619 µg/mL
same,"CL/F, mean","[7]; 1200 mg TID, Day 5, healthy subjects, n = 35",196 L/h
same,AUC,"[7]; human, plasma, oral, 800 mg, 800 mg TID, Day 5, healthy subjects, n = 31, read-out: AUC(τ), mean",5.32 µg·h/mL
same,Cmax,"[7]; human, plasma, oral, 800 mg, 800 mg TID, Day 5, healthy subjects, n = 31, sum of diastereomers, read-out: Cmax, mean",1.69 µg/mL
same,AUC,"[7]; human, plasma, oral, 800 mg, 800 mg TID, Day 5, read-out: Individual AUC(τ) values, range",3.25 to 8.9 µg·h/mL
same,Cmax,"[7]; human, plasma, oral, 800 mg, 800 mg TID, Day 5, read-out: Individual Cmax values, range",1.15 to 2.5 µg/mL
same,AUC,"[7]; human, plasma, oral, 1200 mg, 1200 mg TID, Day 5, healthy subjects, n = 35, read-out: AUC(τ), mean",6.5 µg·h/mL
same,Cmax,"[7]; human, plasma, oral, 1200 mg, 1200 mg TID, Day 5, healthy subjects, n = 35, sum of diastereomers, read-out: Cmax, mean",1.94 µg/mL
same,AUC,"[7]; human, plasma, oral, 1200 mg, 1200 mg TID, Day 5, read-out: Individual AUC(τ) values, range",2.5 to 9.4 µg·h/mL
same,Cmax,"[7]; human, plasma, oral, 1200 mg, 1200 mg TID, Day 5, read-out: Individual Cmax values, range",1.1 to 3.15 µg/mL
same,Vd/F,[7]; [14],530 L
same,Tmax,[7]; [14],2 h
same,half-life,[7]; [14],2.31 h
same,Vd/F,[7]; [15],879 L
same,concentration at 5 day,"[7]; human, plasma, oral, 1200 mg TID, Day 5, healthy subjects, n = 35, read-out: Cmin, mean",0.0799 µg/mL
same,Tmax,[7]; [15],2 h
same,half-life,[7]; [15],3.01 h
same,QT interval (mean QTcF change from time-matched baseline),[8]; 800 mg therapeutic dose (LD) TID,does not prolong the QT interval
same,QT interval (mean QTcF change from time-matched baseline),[8]; 1200 mg supratherapeutic dose (HD) TID,does not prolong the QT interval
"COc1c(N2C[C@@H]3CCCN[C@@H]3C2)c(F)cc2c(=O)c(C(=O)O)cn(C3CC3)c12 [moxifloxacin, reference compound]",QT/QTc interval (mean QTcF change from time-matched baseline),"[8]; 400 mg QD, positive control",lengthened QT/QTc interval
